Among the data in US10633389B2, “CARM1 inhibitors and uses thereof” (Epizyme, Inc., priority 2013, dated 2020) are IC50 values, retold here.

Assay [1] has as its system asymmetric di-methyl PABP1 in RKO cells. As to the kind of experiment: RKO methylation assay, In Cell Western (ICW) for asymmetric di-methyl PABP1. It counts as cell-based. The note with it: Cellular potencies, ICW PABP1me2a. In short, it runs like this:
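RKO cells treated with compound for 48 h at 37 °C, then fixed, permeabilized and immunostained for asymmetric di-methyl PABP1, with DRAQ5 as DNA stain. Infrared 700/800 nm signal ratio normalized to DMSO and 20 μM reference-compound controls; IC50 from triplicate wells.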

A further assay has as its target human CARM1 (PRMT4) (Homo sapiens (Human), UniProt Q86X55). Description: CARM1 enzyme assay on peptide substrate (3H-SAM Flashplate). Conditions: Biochemical potencies, read-out: Biochem IC50. The source says:
S-adenosylmethionine (SAM), S-adenosylhomocysteine (SAH), bicine, Tween20, dimethylsulfoxide (DMSO), bovine skin gelatin (BSG), sodium butyrate and Tris(2-carboxyethyl)phosphine hydrochloride solution (TCEP) were purchased from Sigma-Aldrich at the highest level of purity possible. ^3H-SAM was purchase from American Radiolabeled Chemicals with a specific activity of 80 Ci/mmol. 384-well streptavidin Flashplates were purchased from PerkinElmer.
Peptide representative of human histone H3 residues 16-30 was synthesized with an N-terminal linker-affinity tag motif and a C-terminal amide cap by 21st Century Biochemicals. […] The sequence was Biot-Ahx-[…]-amide and contained a monomethylated arginine at position 26 (SEQ ID NO.:1).
The gene sequence encoding isoform 1 containing a deletion of amino acids 539-561 was amplified subsequently and subcloned into pFastBacMam (Viva Biotech).
Recombinant baculovirus were generated according to Bac-to-Bac kit instructions (Life Technologies). Protein over-expression was accomplished by infecting exponentially growing HEK 293F cell culture at 1.3×10^6 cell/ml with virus (MOI=10) in the presence of 8 mM sodium butyrate. Infections were carried out at 37° C. for 48 hours, harvested by centrifugation, and stored at −80° C. for purification.
Expressed full-length human Flag- and His-tagged CARM1 protein was purified from cell paste by anti-flag M2 affinity chromatography with resin equilibrated with buffer containing 20 mM Tris, 150 mM NaC, 5% glycerol, pH 7.8. Column was washed with 500 mM NaCl in buffer A and Flag-CARM1-His was eluted with 200 ug/ml FLAG peptide in buffer A. Pooled fractions were dialyzed in 20 mM Tris, 150 mM NaCl, 5% glycerol and 1 mM DTT, pH 7.8.
The assays were all performed in a buffer consisting of 20 mM Bicine (pH=7.6), 1 mM TCEP, 0.005% BSG, and 0.002% Tween 20, prepared on the day of use. Compounds in 100% DMSO (1 ul) were spotted into a polypropylene 384-well V-bottom plates (Greiner) using a Platemate Plus outfitted with a 384-channel head (Thermo Scientific). DMSO (1 ul) was added to Columns 11, 12, 23, 24, rows A-H for the maximum signal control and 1 ul of SAH, a known product and inhibitor of CARM1, was added to columns 11, 12, 23, 24, rows I-P for the minimum signal control. A cocktail (40 ul) containing the CARM1 enzyme was added by Multidrop Combi (Thermo-Fisher). The compounds were allowed to incubate with CARM1 for 30 min at room temperature, then a cocktail (10 ul) containing ^3H-SAM and peptide was added to initiate the reaction (final volume=51 ul). The final concentrations of the components were as follows: CARM1 was 0.25 nM, ^3H-SAM was 30 nM, peptide was 250 nM, SAH in the minimum signal control wells was 1 mM, and the DMSO concentration was 2%. The assays were stopped by the addition of non-radiolabeled SAM (10 ul) to a final concentration of 300 uM, which dilutes the ^3H-SAM to a level where its incorporation into the peptide substrate is no longer detectable. 50 ul of the reaction in the 384-well polypropylene plate was then transferred to a 384-well Flashplate and the biotinylated peptides were allowed to bind to the streptavidin surface for at least 1 hour before being washed once with 0.1% Tween20 in a Biotek ELx405 plate washer. The plates were then read in a PerkinElmer TopCount plate reader to measure the quantity of ^3H-labeled peptide bound to the Flashplate surface, measured as disintegrations per minute (dpm) or alternatively, referred to as counts per minute (cpm).
The Hill Coefficient normally allowed to float but may also be fixed at 1 in a 3-parameter fit.

Sequence of human CARM1 (PRMT4) (Q86X55 other isoform, or with tags, fused parts or gaps isoform Q86X55-1): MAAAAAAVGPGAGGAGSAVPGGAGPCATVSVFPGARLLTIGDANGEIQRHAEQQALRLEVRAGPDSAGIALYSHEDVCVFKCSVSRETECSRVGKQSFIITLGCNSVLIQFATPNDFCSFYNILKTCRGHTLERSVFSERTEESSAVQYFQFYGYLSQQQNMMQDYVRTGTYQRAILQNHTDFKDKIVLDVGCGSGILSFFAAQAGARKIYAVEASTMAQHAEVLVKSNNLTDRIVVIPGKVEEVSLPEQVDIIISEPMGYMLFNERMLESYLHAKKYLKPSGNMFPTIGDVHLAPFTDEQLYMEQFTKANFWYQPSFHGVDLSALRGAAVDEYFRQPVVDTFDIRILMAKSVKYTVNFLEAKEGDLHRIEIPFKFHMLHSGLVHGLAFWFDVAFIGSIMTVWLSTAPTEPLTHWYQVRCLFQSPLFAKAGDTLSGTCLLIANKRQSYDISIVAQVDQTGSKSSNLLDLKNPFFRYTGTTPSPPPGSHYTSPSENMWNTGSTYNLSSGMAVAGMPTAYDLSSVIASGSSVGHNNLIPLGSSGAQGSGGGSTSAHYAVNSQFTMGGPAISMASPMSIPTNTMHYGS

Take `CNCC(O)COc1cccc(-c2nc(N[C@H]3CO[C@H]4OCC[C@H]43)cc(N3CCOCC3)n2)c1` (stereo partly shown) [Example 672-1a]: the IC50 (in general, the concentration that gives 50% inhibition) in assay [1] is 10 to 20 µM; on human CARM1 (PRMT4), 0.1 to 1 µM.
As for `CNCC(O)COc1cccc(-c2nc(-c3c(C)n[nH]c3C)cc(N(C)C3CCOCC3)n2)c1` (stereo not shown) [Example 534-1a], the IC50 lay in the range of 5 to 10 µM in assay [1] (Homo sapiens, RKO) and 0.1 to 1 µM on human CARM1 (PRMT4).
For `CNCC(O)COc1cccc(-c2nc(N3C[C@@H]4CCCN(C(C)=O)[C@@H]4C3)cc(N(C)C3CCOCC3)n2)c1` (stereo partly shown) [Example 539-1a] the same measures were 10 to 20 µM and 0.1 to 1 µM.
For `CNCC(O)COc1cccc(-c2nc(NC3CCOCC3)c(C)c(-c3c(C)noc3C)n2)c1Cl` (stereo not shown) [Example 79-3] the same measures were not below 20 µM and 3 to 10 µM.
For `CNCC(O)COc1cccc(-c2nc(NC3CCCC3)c(C)c(N3CCOCC3)n2)c1` (stereo not shown) [Example 683-1a] the same measures were not below 20 µM and 0.1 to 1 µM.
Take `CNCC(O)COc1cc(Cl)cc(-c2nc(-c3c[nH]c4ccccc34)c(C)c(N(C)C3CCOCC3)n2)c1` (stereo not shown) [Example 625-1a]: the IC50 lay within 10 to 20 µM in assay [1] (Homo sapiens, RKO) and 0.1 to 1 µM on human CARM1 (PRMT4).
`CNCC(O)COc1cc(OC)cc(-c2nc(NC3CCOC3)c(C)c(N3CCN(C(C)=O)[C@@H](C)C3)n2)c1` (stereo partly shown) [Example 432-1a]: the IC50 in assay [1] (Homo sapiens, RKO) was 10 to 20 µM; at human CARM1 (PRMT4), 0.1 to 1 µM.
As to `CNCC(O)COc1cccc(-c2nc(NCCCN3CCCC3=O)cc(-c3cccc4ncccc34)n2)c1` (stereo not shown) [Example 648-1a], the IC50 in assay [1] (Homo sapiens, RKO) was not below 20 µM; on human CARM1 (PRMT4), 0.1 to 1 µM.
For `CNCC(O)COc1cccc(-c2nc(N3CC4(CCOCC4)C3)cc(N(C)C3CCOCC3)n2)c1` (stereo not shown) [Example 553-1a] the same measures were 10 to 20 µM and 0.1 to 1 µM.
For `CNCC(O)COc1cccc(-c2nc(NC3CCNCC3)cc(-c3ccncc3)n2)c1` (stereo not shown) [Example 666-1a] the same measures were not below 20 µM and 0.1 to 1 µM.
For `CNCC(O)COc1cccc(-c2nc(C(=O)NC)cc(N(C)C3CCOCC3)n2)c1` (stereo not shown) [Example 554-1a] the same measures were 10 to 20 µM and 0.1 to 1 µM.
With `CNCC(O)COc1cccc(-c2nc(C(=O)NC3CCOCC3)cc(-c3c(C)noc3C)n2)c1` (stereo not shown) [Example 52-1a], the IC50 in assay [1] (Homo sapiens, RKO) lay within 10 to 20 µM; on human CARM1 (PRMT4), 0.1 to 1 µM.
Turning to `CNCC(O)COc1cccc(-c2nc(C3CCN(C(=O)OC)CC3)cc(N(C)C3CCOCC3)n2)c1` (stereo not shown) [Example 533-1a], the IC50 in assay [1] (Homo sapiens, RKO) was 5 to 10 µM; at human CARM1 (PRMT4) it was 0.1 to 1 µM.
For the compound `CNCC(O)COc1cccc(-c2nc(N3CCN(CC(F)(F)F)CC3)cc(N(C)C3CCOCC3)n2)c1` (stereo not shown) [Example 586-1a], the IC50 was 10 to 20 µM in assay [1] (Homo sapiens, RKO) and 0.1 to 1 µM on human CARM1 (PRMT4).
For `CNCC(O)COc1cccc(-c2nc(C3CCN(C(C)=O)CC3)cc(N(C)C3CCOCC3)n2)c1` (stereo not shown) [Example 546-1a] the same measures were 10 to 20 µM and 0.1 to 1 µM.
On to `CNCC(O)COc1cccc(-c2nc(C(=O)NCC3CCOCC3)cc(-c3c(C)noc3C)n2)c1` (stereo not shown) [Example 65-1a], for which the IC50 in assay [1] (Homo sapiens, RKO) lay in the range of 10 to 20 µM; on human CARM1 (PRMT4) it was 0.1 to 1 µM.
`CNCC(O)COc1cccc(-c2nc(N[C@H]3CO[C@H]4OCC[C@H]43)c(C)c(N3CCOCC3)n2)c1` (stereo partly shown) [Example 673-1a]: the IC50 is 10 to 20 µM in assay [1] and 0.1 to 1 µM on human CARM1 (PRMT4).
Take `CNCC(O)COc1cccc(-c2nc(NC3CCOC(C)C3)c(C)c(-c3c(C)noc3C)n2)c1Cl` (stereo not shown) [Example 80-3]: the IC50 in assay [1] (Homo sapiens, RKO) was not below 20 µM; on human CARM1 (PRMT4), 0.1 to 1 µM.
For `CNCC(O)COc1cccc(-c2nc(N[C@@H]3CCOC3)c(C)c(-c3ccnc(-n4ccnc4)c3)n2)c1` (stereo partly shown) [Example 405-1a] the same measures were 10 to 20 µM and 0.1 to 1 µM.
For `CNCC(O)COc1cccc(-c2nc(N[C@@H]3CCOC3)c(C)c(-c3cnccn3)n2)c1` (stereo partly shown) [Example 451-1a] the same measures were 10 to 20 µM and 0.1 to 1 µM.
With `CNC[C@@H](O)COc1cccc(-c2nc(N[C@@H]3CCOC3)c(C)c(-c3cn(S(C)(=O)=O)c4ncncc34)n2)c1` [Example 453-1a], the IC50 is 5 to 10 µM in assay [1] (Homo sapiens, RKO) and 0.1 to 1 µM at human CARM1 (PRMT4).
For `CNCC(O)COc1cccc(-c2nc(-c3c[nH]cn3)cc(N(C)C3CCOCC3)n2)c1` (stereo not shown) [Example 589-1a] the same measures were 10 to 20 µM and 0.1 to 1 µM.
For `CNCC(O)COc1cccc(-c2nc(N[C@@H]3CCOC3)c(C)c(N3CCNC(C(F)(F)F)C3)n2)c1` (stereo partly shown) [Example 428-1a] the same measures were 10 to 20 µM and 0.1 to 1 µM.
Turning to `CNCC(O)COc1cccc(-c2nc(NC3COC3)cc(-c3c(C)noc3C)n2)c1` (stereo not shown) [Example 22-1a], the IC50 in assay [1] (Homo sapiens, RKO) fell in the range of 10 to 20 µM; on human CARM1 (PRMT4), 0.1 to 1 µM.
For `CNCC(O)COc1cccc(-c2nc(OC)c(C)c(-c3c(C)noc3C)n2)c1` (stereo not shown) [Example 83-1a] the same measures were 10 to 20 µM and 0.1 to 1 µM.
For `CNCC(O)COc1cccc(-c2nc(NC3CCOCC3)c(C)c(N3CCN(C(C)=O)CC3)n2)c1` (stereo not shown) [Example 643-1a] the same measures were not below 20 µM and 1 to 3 µM.
For `CNC[C@H](O)COc1ccc(F)c(-c2nc(-c3c(C)noc3C)c(C)c(-c3c(C)noc3C)n2)c1` [Example 81-3] the same measures were not below 20 µM and 1 to 3 µM.
Turning to `CNCC(O)COc1cccc(-c2nc(NCCCN3CCCCCC3=O)cc(N3CCOCC3)n2)c1` (stereo not shown) [Example 685-1a], the IC50 in assay [1] (Homo sapiens, RKO) is not below 20 µM; at human CARM1 (PRMT4), 1 to 3 µM.
As for `CNCC(O)COc1cccc(-c2nc(NC3CCOCC3)cc(-c3ccnc(OC)c3)n2)c1` (stereo not shown) [Example 653-1a], the IC50 in assay [1] (Homo sapiens, RKO) is not below 20 µM; on human CARM1 (PRMT4), 1 to 3 µM.
For `CNCC(O)COc1cccc(-c2nc(N[C@@H]3CCOC3)c(C)c(-c3cnn(CC(F)(F)F)c3)n2)c1` (stereo partly shown) [Example 414-1a] the same measures were 10 to 20 µM and 0.1 to 1 µM.
Take `CNCC(O)COc1cccc(-c2nc(C3CCN(C(=O)N(C)C)CC3)cc(N(C)C3CCOCC3)n2)c1` (stereo not shown) [Example 515-1a]: the IC50 in assay [1] (Homo sapiens, RKO) lay in the range of 5 to 10 µM; on human CARM1 (PRMT4) it was 0.1 to 1 µM.
For `CNCC(O)COc1cccc(-c2nc(NC3CCOCC3)c(C)c(N3CCNC(C)C3)n2)c1` (stereo not shown) [Example 645-1a] the same measures were not below 20 µM and 1 to 3 µM.
On to `CNCC(O)COc1cccc(-c2nc(C3CCCC3)cc(C(CCOC)CCOC)n2)c1` (stereo not shown) [Example 650-1a], for which the IC50 in assay [1] (Homo sapiens, RKO) is not below 20 µM; on human CARM1 (PRMT4), 0.1 to 1 µM.
For `CNCC(O)COc1cccc(-c2nc(NCCOC)cc(-c3ccc(S(C)(=O)=O)cc3)n2)c1` (stereo not shown) [Example 637-1a] the same measures were not below 20 µM and 0.1 to 1 µM.
For `CNCC(O)COc1cccc(-c2nc(N(C)c3cnc(OC)nc3)cc(N(C)C3CCOCC3)n2)c1` (stereo not shown) [Example 532-1a] the same measures were 5 to 10 µM and 0.1 to 1 µM.
For `CNCC(O)COc1cccc(-c2nc(C(=O)N(C)CC3CCOCC3)cc(-c3c(C)noc3C)n2)c1` (stereo not shown) [Example 46-1a] the same measures were 10 to 20 µM and 0.1 to 1 µM.
Consider `CNCC(O)COc1cccc(-c2nc(NC3CCOC3)c(C)c(N3CCC(O)(CCO)CC3)n2)c1` (stereo not shown) [Example 399-1a], for which the IC50 was 10 to 20 µM in assay [1] (Homo sapiens, RKO) and 0.1 to 1 µM on human CARM1 (PRMT4).
On to `CNCC(O)COc1cccc(-c2nc(N(C)C3CCOCC3)c(C)c(C(C)(C)O)n2)c1` (stereo not shown) [Example 545-1a], for which the IC50 is 10 to 20 µM in assay [1] (Homo sapiens, RKO) and 0.1 to 1 µM on human CARM1 (PRMT4).
